Measured values as given in ChEMBL document CHEMBL1159378, “Continuing studies on the cyanobacterium Lyngbya sp.: isolation and structure determination of 15-norlyngbyapeptin A and lyngbyabellin D” (J Nat Prod, 2003).

Test system: KB
Experiment: Cytotoxicity against human KB cells
Assay type: functional, cell-based

Row | Structure (SMILES) | IC50 [nM]
1 | CC[C@H](C)[C@@H](C(=O)N1CCC[C@H]1c1nccs1)N(C)C(=O)[C@H](CC(C)C)N(C)C(=O)[C@H](Cc1ccc(OC)cc1)N(C)C(=O)/C=C(\C)OC [LYNGBYAPEPTIN A] | > 5000
2 | CC[C@H](C)[C@@H](C(=O)N1CCC[C@H]1c1nccs1)N(C)C(=O)[C@H](CC(C)C)N(C)C(=O)[C@H](Cc1ccc(O)cc1)N(C)C(=O)/C=C(\C)OC [15-NORLYNGBYAPEPTIN A] | 1300
3 | CCCC(=O)N[C@@H](C(C)C)[C@H](CC(=O)OC[C@@H](O)c1nc(C(=O)O[C@@H](CCCC(C)(Cl)Cl)[C@@H](C)C(=O)O[C@@H](c2nc(C(=O)OC)cs2)[C@](C)(O)CC)cs1)OC(C)=O [LYNGBYABELLIN D] | 100
